Measurements taken from patent publication US6551774B1, “Diagnostic methods for conditions associated with elevated cellular levels of telomerase activity” (Board of Regents, The University of Texas System, priority 1992, dated 2003).

What was measured:
[1] = test system: MDA 157 human breast cancer cells; assay: Proliferation of MDA 157 cancer cells fed oligonucleotides (Example 2); format: cell-based
Procedure: Specifically, MDA 157 human breast cancer cells with an immortal phenotype were seeded at 10,000 cells per well in 12 well tissue culture dishes and fed medium only or medium supplemented with GTO-12 (at 1.0 μM, 0.1 μM, and 0.01 μM). […] Cells fed the GTO-12 oligonucleotide, at 1.0 μM, however, ceased to proliferate after less than 10 doubling. […] The lack of effect of the G+C mixture may reflect the CTO-12 oligonucleotide, competing with or base pairing with the GTO-12 oligonucleotide, this preventing its inhibitory effect on the cancer cell telomerase.

[2] = test system: IDH4 immortalized human fibroblast cell line; assay: IDH4 cells incubated with GTO: population doublings and TRF length (Example 12); format: cell-based; details: for population doublings in 90 days: fed every other day (control 45 PDL)
Procedure: As in Example 2, an immortalized human fibroblast cell line, IDH4, which has very short TRFs, was incubated with GTO oligonucleotide. Referring to FIGS. 15 and 16, cells were incubated in regular culture medium containing serum in the presence of 10 μM, 30 μM and 100 μM GTO. The cells were fed fresh phosphodiester GTO oligonucleotide every other day and subcultured when confluent for a total of 90 days. The cells were still growing in GTO after 90 days at all concentrations used even though they grew more slowly at the higher GTO concentrations and went through fewer population doubling (control, 45 PDL; 10 μM GTO 40 PDL; 30 μM 35 PDL; 100 μM 25 PDL). […] The control and 30 μM GTO were passaged without oligonucleotide addition for an additional 90 days (approximately 35-40 PDL). As is illustrated in FIG. 16, the TRFs slowly shorten.

[3] = test system: Tetrahymena cells; assay: Growth, morphology and senescence of Tetrahymena mass-transfer cultures with nucleoside analogs; format: cell-based, Tetrahymena thermophila; details: 2% PPYS plus, mass transfer
Procedure: (§1) For analysis of macronuclear DNA from cultures containing the nucleoside analog AZT (Sigma), or controls lacking analog, at various timepoints during vegetative divisions, cells from stationary stock cultures were inoculated into 25 ml thymine-deficient Iso-sensitest broth (‘Isobroth’, Oxoid USA) in 250 ml flasks. Cultures were incubated at 30° C. with shaking (100 rpm) for 48 hours. Cells were counted and plated at 1000 cells/1.5 ml in 24-well plates (Falcon) and grown at 30° C., without shaking, for 48 hours. 5 μl of these log phase cells were used to inoculate 1 ml cultures (Isobroth) containing varied concentrations of nucleoside analog. Thereafter, every 2-4 days cells were transferred, either 5 μl per well, or 1-3 μl using a multi-pronged replicator into fresh 1 ml broth containing AZT. Remaining cells were pelleted and stored at −80° C. until processed for DNA analysis.
(§2) For analysis of macronuclear DNA from vegetative cultures containing the nucleoside analogs Ara-G (Calbiochem), ddG (Calbiochem), or ddI (Calbiochem), or controls lacking analog, stock cultures were grown overnight in 2% PPYS as described. Cells were counted and plated at 100 cells/2 ml in 2% PPYS containing varied amounts of analog, 1% DMSO (Fisher) (as a control for ddG and Ara-G), or 2% PPYS alone. Cells were replica plated into fresh medium every 2-6 days, and remaining cells were pelleted and stored at −80° C. until processed for DNA analysis.
To test whether such a phenotype could be produced by inhibitors of telomerase in Tetrahymena, duplicate log-phase cultures were grown for prolonged periods in the presence of varying concentrations of analogs. The growth and cell morphology of these cultures were monitored, and DNA was isolated at different times for telomere length analysis. […] From growth rate measurements it was calculated that the cells went through 150 to 250 cell generations in the course of this 50 day period.

[4] = test system: Tetrahymena cells; assay: Single-cell transfer cultures of Tetrahymena with AZT or Ara-G; format: cell-based, Tetrahymena thermophila; details: 10 μM AZT; 10 μM or 1 mM Ara-G; 1 to 10 cells per well
Procedure: For analysis of vegetative growth and macronuclear DNA from single-cell cultures containing the nucleoside analogs AZT or Ara-G, SB210 (VI) cells were grown from stationary stock cultures overnight at 30° C. with shaking (100 rpm) in 50 ml 2% PPYS or Isobroth. Cells were counted and added to the appropriate medium plus analog (Ara-G to 1 mM or DMSO to 1% as control in 2% PPYS; AZT to 10 μm or 1 mM, or no addition as control in Isobroth) and plated in 96-well plates (Falcon), 100 μl per well at a density of 1 cell per well. 5 plates were prepared for each analog or control. Wells were scored for cell growth and plates were replica plated every 1-2 days (Ara-G and DMSO plates) or every 2-4 days (AZT and Isobroth control plates) to maintain approximate inoculation densities of 1-10 cells per well for each passage. Occasionally individual wells were passaged by hand (1 μl inoculated per well using a pipettor) into several blank wells, to expand the number of live wells per plate as single-cell cultures were lost over time due to low probability of being transferred at each passage. After passaging, cells were pooled, pelleted and stored at −80° C. until processed for DNA analysis.
To test whether we had missed such a subpopulation of cells, we carried out the same experiments on vegetatively dividing Tetrahymena cells in the presence and absence of drug, but in these experiments the subculturing was carried out by plating cells at an average of 1 to 10 cells per well in microtiter plate wells in the presence of 10 μM and 1 mM AZT, and 10 μM and 1 mM Ara-G. For each drug, cells were plated out in this manner for 30 consecutive days (90 to 150 cell generations) and 16 consecutive days (50 to 80 cell generations) respectively for the 10 μM and 1 mM drug concentrations. DNA was isolated at intervals from combined samplings of the wells for analysis of telomere length.

[5] = test system: Tetrahymena cells; assay: Progeny formation (cycloheximide resistance) of Tetrahymena conjugated in the presence of analog; format: cell-based, Tetrahymena thermophila; details: for # CHX-R: number of cycloheximide-resistant wells; for irreversible disruption of macronuclear development: analog present during conjugation
Procedure: For analysis of cycloheximide (CHX) sensitivity of cells conjugated in the presence of analog, 50 ml cultures of each cell type were grown overnight in 2% PPYS, starved in Dryl's for 18 hours, mated (5×10^5 cells/ml) for 6 hours, then analog was added. Cells were allowed to complete mating in the presence of the analog. Twenty-four hours after mixing, cells were diluted in Dryl's solution, counted and plated at 1 cell per well of 96-well plates in 1% PPYS without analog. Cells were grown for 4 days in a humid chamber at 30° C., without shaking. Cells were then replica plated into 1% PPYS plus 15 μg/ml cycloheximide, allowed to grow for four days before scoring, and percent of CHX-resistant wells was calculated. Because generation of progeny expressing the cycloheximide marker requires successful production of a new macronucleus, cells whose macronuclear development was disrupted by the analog are killed in CHX.
This process involves de novo formation of new macronuclear telomeres in the progeny cells. Macronuclear development in ciliated protozoans such as Tetrahymena involves developmentally programmed, site-specific fragmentation of germline chromosomes into linear subchromosomes, whose ends are healed by de novo addition of telomeres. […] Because of the immediate requirement for telomere addition to fragmented DNA, it is possible that the latter process might be more sensitive to telomerase inhibition than telomere maintenance during vegetative growth. To test whether nucleoside analogs cause inhibition of macronuclear development due to a disruption of telomere formation, we mated two strains of Tetrahymena which are sensitive to cycloheximide, but whose progeny after mating are resistant to cycloheximide. Synchronized mated cells were treated with AZT at concentrations ranging from 10 μM to 5 mM for a period beginning just prior to when macronuclear development begins and continuing during macronuclear development (the period 6-24 hours after mating was initiated). […] In attempts to maximize the effect of AZT, cells were either refed at 6 hrs with 2% PPYS or Isobroth, or starved until 24 hrs (the duration of the AZT treatment). Such starvation arrests macronuclear development at an intermediate stage. When refed, macronuclear development would then be forced to proceed in the presence of the AZT. Control, unmated parental cells were also plated and exposed to drug.

[6] = molecular target: T1, human telomerase obtained from the tumor cell line 296 (Homo sapiens, UniProt O14746); assay: Inhibition of human telomerase from a tumor cell line; format: biochemical
T1 construct: human telomerase obtained from the tumor cell line 296; endogenous in cells; host or cells: tumor cell line 296 (so in the source)
T1 sequence (O14746 whole entry): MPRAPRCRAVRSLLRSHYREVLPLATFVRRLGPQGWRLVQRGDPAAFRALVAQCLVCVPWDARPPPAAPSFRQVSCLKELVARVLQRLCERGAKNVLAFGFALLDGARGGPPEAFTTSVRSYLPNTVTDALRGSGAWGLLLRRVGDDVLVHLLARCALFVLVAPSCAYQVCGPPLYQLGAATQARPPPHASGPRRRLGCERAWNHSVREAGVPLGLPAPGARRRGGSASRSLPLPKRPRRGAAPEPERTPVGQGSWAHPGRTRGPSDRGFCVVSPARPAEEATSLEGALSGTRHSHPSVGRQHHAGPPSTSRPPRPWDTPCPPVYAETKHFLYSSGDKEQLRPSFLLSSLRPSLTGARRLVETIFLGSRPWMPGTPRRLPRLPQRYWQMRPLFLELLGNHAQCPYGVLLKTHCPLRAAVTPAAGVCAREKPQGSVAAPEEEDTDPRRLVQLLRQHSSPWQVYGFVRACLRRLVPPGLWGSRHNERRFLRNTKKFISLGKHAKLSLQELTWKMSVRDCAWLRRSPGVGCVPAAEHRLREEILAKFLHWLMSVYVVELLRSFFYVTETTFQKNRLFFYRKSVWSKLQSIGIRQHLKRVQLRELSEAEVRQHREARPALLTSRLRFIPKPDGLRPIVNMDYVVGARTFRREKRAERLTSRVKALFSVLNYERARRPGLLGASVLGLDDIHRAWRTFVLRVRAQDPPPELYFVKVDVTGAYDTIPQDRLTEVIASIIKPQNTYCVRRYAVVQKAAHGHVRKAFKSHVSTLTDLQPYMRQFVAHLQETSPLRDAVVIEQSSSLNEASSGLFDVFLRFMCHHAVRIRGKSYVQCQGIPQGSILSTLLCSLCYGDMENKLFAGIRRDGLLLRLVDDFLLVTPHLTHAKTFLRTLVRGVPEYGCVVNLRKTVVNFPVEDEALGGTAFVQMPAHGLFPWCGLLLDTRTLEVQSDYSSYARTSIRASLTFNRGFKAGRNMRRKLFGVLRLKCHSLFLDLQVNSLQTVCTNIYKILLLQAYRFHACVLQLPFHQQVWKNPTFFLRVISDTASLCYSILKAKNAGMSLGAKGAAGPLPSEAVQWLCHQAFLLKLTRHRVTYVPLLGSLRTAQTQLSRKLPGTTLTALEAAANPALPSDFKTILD
T1 sequence (O60832 whole entry partner): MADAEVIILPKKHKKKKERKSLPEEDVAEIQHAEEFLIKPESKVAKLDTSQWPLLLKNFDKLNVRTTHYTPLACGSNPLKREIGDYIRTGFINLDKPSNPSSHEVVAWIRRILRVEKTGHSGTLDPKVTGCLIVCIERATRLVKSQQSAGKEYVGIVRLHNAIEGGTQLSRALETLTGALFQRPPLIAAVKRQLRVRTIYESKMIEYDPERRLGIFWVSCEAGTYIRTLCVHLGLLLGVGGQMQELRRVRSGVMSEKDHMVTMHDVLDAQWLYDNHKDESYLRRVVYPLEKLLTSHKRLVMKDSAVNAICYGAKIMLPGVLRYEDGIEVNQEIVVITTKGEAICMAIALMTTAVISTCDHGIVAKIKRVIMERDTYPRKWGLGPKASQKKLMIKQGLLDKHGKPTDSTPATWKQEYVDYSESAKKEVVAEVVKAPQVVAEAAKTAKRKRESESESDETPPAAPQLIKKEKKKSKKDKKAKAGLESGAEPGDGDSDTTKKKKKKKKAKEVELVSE
T1 sequence (Q9NPE3 whole entry partner): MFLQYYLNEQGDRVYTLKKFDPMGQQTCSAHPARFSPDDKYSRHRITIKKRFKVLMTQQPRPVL
T1 sequence (Q9NX24 whole entry partner): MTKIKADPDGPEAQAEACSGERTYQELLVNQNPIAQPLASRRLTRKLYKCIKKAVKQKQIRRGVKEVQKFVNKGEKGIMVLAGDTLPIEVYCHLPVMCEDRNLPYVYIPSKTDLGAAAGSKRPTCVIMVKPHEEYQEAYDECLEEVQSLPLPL
T1 sequence (Q9NY12 whole entry partner): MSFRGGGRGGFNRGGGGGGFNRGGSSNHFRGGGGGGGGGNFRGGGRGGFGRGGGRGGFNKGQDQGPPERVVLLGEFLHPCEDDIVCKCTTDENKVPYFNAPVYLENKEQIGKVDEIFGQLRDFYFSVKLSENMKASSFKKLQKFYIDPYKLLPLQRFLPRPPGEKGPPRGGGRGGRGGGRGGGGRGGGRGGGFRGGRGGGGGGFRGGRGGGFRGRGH

[7] = test system: lymphoma cell line JY 616; assay: Growth of cultured JY lymphoma cells with potential telomerase inhibitors; format: cell-based, human; details: 20 μM
Procedure: (§3) The effect of the agents on telomerase activity in intact cells was then studied utilizing the lymphoma cell line JY 616 which were maintained in RPMI 1640 with […] Hepes, 10% FCS, and penicillin/streptomycin (Gibco). The cells were cultured in 6-well plates (Falcon) with 5.0 ML of medium per well in duplicate. Cells were passaged every 7-10 days which corresponded to 5-7 mean population doublings (MPD), and seeded at 3×10^4 cells per well into fresh medium containing analog or control. Cell viability was monitored prior to harvest utilizing trypan blue stain (Gibco) during counting with a hemocytometer. The average ratio of stained: unstained cells (dead:alive) was […]. The intactness of the DNA was measured on a parallel gel by observing its mobility in a gel prior to digestion by a restriction enzyme.

[8] = test system: Tetrahymena cells; assay: Telomere length in vegetatively grown Tetrahymena by Southern blot; format: cell-based, Tetrahymena thermophila; details: up to 1 mM, 5 days of subculturing (15-20 cell generations), 2% PPYS
Procedure: as §1, §2
For analysis of macronuclear DNA from vegetative cultures containing d4T (Sigma) or control lacking the analog, stock cultures (SB210 VI) were grown overnight in Isobroth as described. Cells were then counted and duplicate cultures inoculated at 500 cells/5 ml Isobroth in 50 ml conical tubes, and grown at 30° C., shaking 80 rpm. 500-2000 cells were transfered to fresh broth every 2-4 days, and the remainder pelleted and stored at −80° C. until processed for DNA analysis.
Restriction digests, agarose gel electrophoresis, transfer of DNA to Nytran filters (Schleicher and Schuell), and hybridization with ^32P-nick-trapplated or random-primed probes were carried out using standard procedures (Maniatis et.al. 1989). Telomere length was analyzed as described previously for Tetrahymena [Larson 50 Cell, 477, 1987].
Telomere lengths in cells grown in the presence of the different analogs were monitored by Southern blot analysis of DNA samples extracted at a series of time points during the subculturings. The telomeres of cells grown vegetatively in 1 and 5 mM AZT in 2% PPYS medium were reproducibly shortened by up to an average of 170 base pairs compared with the control cultures grown in 2% PPYS in the absence of the drug (FIG. 21A and B). This shortening of telomeres occured in a concentration-dependent manner (FIG. 21B), with at least 50% of the maximal shortening effect occurring by 10 μM AZT, the lowest concentration tested.

[9] = test system: lymphoma cell line JY 616; assay: Telomere length of JY lymphoma cells by Southern blot; format: cell-based, human; details: 10 μM, 9 and 10 weeks
Procedure: The first lane is DNA from the cells at the start of the experiment, the second is the RPMI control, and the third is cells treated with AZT for the times indicated.
Cells were treated over a 10 week period with either 10 μM ddG in 0.01% DMSO or medium with 0.01% DMSO only.
as §3

[10] = 0.01 mM analog (head prints MM), first block for the analog
[11] = 0.01 mM analog, first block for the analog
[12] = 0.1 mM analog (head prints MM), first block for the analog
[13] = 0.1 mM analog, first block for the analog
[14] = 1.0 mM analog (head prints MM), first block for the analog
[15] = 1.0 mM analog, first block for the analog
[16] = 0.001 mM analog (head prints MM), first block for the analog
[17] = 0.001 mM analog, first block for the analog

Row | Molecule | % CHX-R [5, 10] [%] | # CHX-R [5, 11] | % CHX-R [5, 12] [%] | # CHX-R [5, 13] | % CHX-R [5, 14] [%] | # CHX-R [5, 15] | irreversible disruption of macronuclear development [5] | inhibition of human telomerase [6] | telomere length compared with control cultures [8] | % CHX-R [5, 16] [%] | # CHX-R [5, 17] | further results
1 | 5′-TTAGGGTTAGGG-3′ (listed as DNA, chemistry not given here) [GTO-12, guanidine-rich terminal oligonucleotide-12 bp] |  |  |  |  |  |  |  |  |  |  |  | doublings after which cells ceased to proliferate ([1]; 1.0 μM): less than 10 doubling; proliferation phenotype ([1]; doses of less than 1.0 μM (0.1 μM, 0.01 μM)): continued replicating in an immortal phenotype; TRF length after 90 days ([2]; 10 μM, 30 μM and 100 μM): regained TRF length in a dose dependent manner; population doublings in 90 days ([2]; 10 μM): 40 PDL; population doublings in 90 days ([2]; 30 μM): 35 PDL; population doublings in 90 days ([2]; 100 μM): 25 PDL
2 | Nc1nc2c(ncn2[C@@H]2O[C@H](CO)[C@@H](O)[C@@H]2O)c(=O)[nH]1 [Ara-G] | 81 | 114 | 80 | 134 | 55 | 89 | little or no irreversible disruption | effective inhibitors of human telomerase |  |  |  | cell doubling rate, morphology, long term viability [3]: no effects on cell doubling rate, morphology or long term viability; plating efficiency compared with control medium [4]: no changes in the plating efficiency; % CHX-R ([5]; 1.0 mM analog (head prints MM), second block for the analog): 59%; # CHX-R ([5]; 1.0 mM analog, second block for the analog): 51; % CHX-R ([5]; 2.0 mM analog (head prints MM), second block for the analog): 43%; # CHX-R ([5]; 2.0 mM analog, second block for the analog): 40; cell growth [7]: slowed growth
3 | Nc1nc2c(ncn2[C@H]2CC[C@@H](CO)O2)c(=O)[nH]1 [ddG] |  |  | 85 | 73 | 77 | 51 | little or no irreversible disruption | effective inhibitors of human telomerase | no changes in telomere length | 84 | 86 | telomere length compared to the DMSO control [9]: decrease in telomere length
4 | O=c1[nH]cnc2c1ncn2[C@H]1CC[C@@H](CO)O1 [ddI] | 89 | 85 | 78 | 83 | 91 | 100 | little or no irreversible disruption |  | no changes in telomere length | 83 | 59 | 
